Results from patent US9675595B2, “Synergistic combinations of PI3K- and MEK-inhibitors” (Novartis AG, priority 2011, dated 2017).
Read-outs that look alike come from different tables or passages of the source.

Columns and labels:
Format in all cases: cell-based
C2BBe1 = assay: Cell viability (CellTiterGlo, 72 h), Example 1; conditions: Homo sapiens, single agent
Source text: (§1) The colorectal cancer cell lines SW1417, COLO 205, LS411N, HT-29, RKO, OUMS-23, SW620, LoVo, SW480, SW837, COLO-678, LS123-NCI—H747, HCT-15, HCT116, DLD-1, T84, SW948, LS180, GP2d, HuTu 80, CW-2, SW48, NCI—H716, C2Bbe1, SNU—C1 and KM12 are obtained from the American Type Culture Collection (ATCC) and maintained in their respective culture medium as specified by the provider. These colorectal cancer cell lines have the following mutation status:
(§2) For assessment of combination effects, cells are seeded into 384-well plates at 500 cells/well and incubated overnight. The contents of the compound master plates are pre-diluted with 1:200 (1 μL compound solution to 200 μL cell […] culture medium containing 10% fetal clf serum) before transferring 5 μL of this pre-dilution to the cell plates containing 20 μL cell culture medium, to achieve the targeted final compound concentrations as well as a vehicle (DMSO) concentration of 0.09%.
(§3) Effects of single agents as well as their checkerboard combinations on cell viability are assessed after 72 hours of incubation at 37° C./5% CO2 by quantification of cellular ATP levels (CellTiterGlo, Promega) using 25 μL reagent/well and n=2 repliate plates per condition. The number/viability of cells at the time of compound addition was likewise assessed and used to estimate the population doubling time of the particular cell line. Single agent IC50s are calculated using standard four-parametric curve fitting (SLFit, model 205). Potential synergistic interactions between compound combinations are assessed using the Excess Inhibition 2D matrix according to the Loewe additivity model and are reported as Synergy Score. In addition, compound combinations are assessed by combination index analysis derived from isobologram graphs at 50% inhibition, and are reported as best combination index (CI), which corresponds to the lowest value on the isobologram. All synergy calculations are performed using CHALICE software (Lehár et al, Nat Biotechnol. (July 2009), 27(4): 69:66).

COLO-678 = assay: Cell viability (CellTiterGlo, 72 h), Example 1; conditions: Homo sapiens, single agent
Source text: as §1, §2, §3

COLO205 = assay: Cell viability (CellTiterGlo, 72 h), Example 1; conditions: Homo sapiens, COLO 205, single agent
Source text: as §1, §2, §3

DLD-1 = assay: Cell viability (CellTiterGlo, 72 h), Example 1; conditions: Homo sapiens, single agent
Source text: as §1, §2, §3

GP2d = assay: Cell viability (CellTiterGlo, 72 h), Example 1; conditions: single agent
Source text: as §1, §2, §3

HCT 116 = assay: Cell viability (CellTiterGlo, 72 h), Example 1; conditions: Homo sapiens, HCT-116, 72 h
Source text: as §1, §2, §3

HT-29 = assay: Cell viability (CellTiterGlo, 72 h), Example 1; conditions: Homo sapiens, HT-29, 72 h
Source text: as §1, §2, §3

HuTu 80 = assay: Cell viability (CellTiterGlo, 72 h), Example 1; conditions: Homo sapiens, HuTu80, single agent
Source text: as §1, §2, §3

KM12 = assay: Cell viability (CellTiterGlo, 72 h), Example 1; conditions: Homo sapiens, single agent
Source text: as §1, §2, §3

LS 180 = assay: Cell viability (CellTiterGlo, 72 h), Example 1; conditions: Homo sapiens, LS180, single agent
Source text: as §1, §2, §3

LS123 = assay: Cell viability (CellTiterGlo, 72 h), Example 1; conditions: Homo sapiens, LS-123, single agent
Source text: as §1, §2, §3

LS411N = assay: Cell viability (CellTiterGlo, 72 h), Example 1; conditions: Homo sapiens, LS-411N, single agent
Source text: as §1, §2, §3

LoVo = assay: Cell viability (CellTiterGlo, 72 h), Example 1; conditions: Homo sapiens, single agent
Source text: as §1, §2, §3

NCI-H716 = assay: Cell viability (CellTiterGlo, 72 h), Example 1; conditions: Homo sapiens, single agent
Source text: as §1, §2, §3

NCI-H747 = assay: Cell viability (CellTiterGlo, 72 h), Example 1; conditions: Homo sapiens, single agent
Source text: as §1, §2, §3

OUMS-23 = assay: Cell viability (CellTiterGlo, 72 h), Example 1; conditions: single agent
Source text: as §1, §2, §3

RKO = assay: Cell viability (CellTiterGlo, 72 h), Example 1; conditions: Homo sapiens, single agent
Source text: as §1, §2, §3

SNU-C1 = assay: Cell viability (CellTiterGlo, 72 h), Example 1; conditions: Homo sapiens, single agent
Source text: as §1, §2, §3

SW1417 = assay: Cell viability (CellTiterGlo, 72 h), Example 1; conditions: Homo sapiens, single agent
Source text: as §1, §2, §3

SW48 = assay: Cell viability (CellTiterGlo, 72 h), Example 1; conditions: Homo sapiens, single agent
Source text: as §1, §2, §3

SW620 = assay: Cell viability (CellTiterGlo, 72 h), Example 1; conditions: Homo sapiens, SW-620, single agent
Source text: as §1, §2, §3

SW837 = assay: Cell viability (CellTiterGlo, 72 h), Example 1; conditions: Homo sapiens, single agent
Source text: as §1, §2, §3

SW948 = assay: Cell viability (CellTiterGlo, 72 h), Example 1; conditions: Homo sapiens, duplicate data points and dose response display some scatter, single agent
Source text: as §1, §2, §3

T84 = assay: Cell viability (CellTiterGlo, 72 h), Example 1; conditions: Homo sapiens, duplicate data points and dose response display some scatter, single agent
Source text: as §1, §2, §3

[1] = test system: colorectal cancer cell lines; assay: Cell viability (CellTiterGlo, 72 h), Example 1, whole panel; conditions: repeat experiments (*) excluded
Source text: as §1, §2
as §3, with “[…]). Interpretation of values for combination index and synergy score are provided below:” for “69:66).”
Pairwise multiple comparisons of the result groups are performed by one-way ANOVA (Neuman-Keuls method) using GraphPad Prism 5 (GraphPad Software Inc.). Results

Cc1nc(NC(=O)N2CCC[C@H]2C(N)=O)sc1-c1ccnc(C(C)(C)C(F)(F)F)c1 [COMPOUND A, (S)-pyrrolidine-1,2-dicarboxylic acid 2-amide 1-({4-methyl-5-[2-(2,2,2-trifluoro-1,1-dimethyl-ethyl)-pyridin-4-yl]-thiazol-2-yl}-amide)]
IC50 (C2BBe1; read-out: Cmpd. A IC50): 9200 nM | IC50 (COLO-678; read-out: Cmpd. A IC50): > 10800 nM | IC50 (COLO205; read-out: Cmpd. A IC50): > 10800 nM | IC50 (DLD-1; read-out: Cmpd. A IC50): > 10800 nM | IC50 (GP2d; read-out: Cmpd. A IC50): 698 nM | IC50 (HCT 116; HCT 116*, repeat experiment performed at end of study, single agent, read-out: Cmpd. A IC50): 8320 nM | IC50 (HCT 116; HCT 116, single agent, read-out: Cmpd. A IC50): 9420 nM | IC50 (HT-29; HT-29*, repeat experiment performed at end of study, single agent, read-out: Cmpd. A IC50): 4280 nM | IC50 (HT-29; HT-29, single agent, read-out: Cmpd. A IC50): 5200 nM | IC50 (HuTu 80; read-out: Cmpd. A IC50): 8840 nM | IC50 (KM12; read-out: Cmpd. A IC50): > 10800 nM | IC50 (LS 180; read-out: Cmpd. A IC50): 5080 nM | IC50 (LS123; read-out: Cmpd. A IC50): 7250 nM | IC50 (LS411N; read-out: Cmpd. A IC50): 8670 nM | IC50 (LoVo; read-out: Cmpd. A IC50): 8660 nM | IC50 (NCI-H716; read-out: Cmpd. A IC50): > 10800 nM | IC50 (NCI-H747; read-out: Cmpd. A IC50): 6210 nM | IC50 (OUMS-23; read-out: Cmpd. A IC50): > 10800 nM | IC50 (RKO; read-out: Cmpd. A IC50): 6730 nM | IC50 (SNU-C1; read-out: Cmpd. A IC50): 2430 nM | IC50 (SW1417; read-out: Cmpd. A IC50): 7850 nM | IC50 (SW48; read-out: Cmpd. A IC50): 1410 nM | IC50 (SW620; read-out: Cmpd. A IC50): > 10800 nM | IC50 (SW837; read-out: Cmpd. A IC50): 7280 nM | IC50 (SW948; read-out: Cmpd. A IC50): 1190 nM | IC50 (T84; read-out: Cmpd. A IC50): 4160 nM | IC50 ([1]; Mean over colorectal cell lines, read-out: Mean Cmpd. A IC50): 7510 nM | IC50 ([1]; Median over colorectal cell lines, read-out: Median Cmpd. A IC50): 8660 nM

Cn1cnc2c(F)c(Nc3ccc(Br)cc3F)c(C(=O)NOCCO)cc21 [COMPOUND B, 6-(4-bromo-2-fluorophenylamino)-7-fluoro-3-methyl-3H-benzoimidazole-5-carboxylic acid (2-hydroxyethoxy)-amide]
IC50 (C2BBe1; read-out: Cmpd. B IC50): 1580 nM | IC50 (COLO-678; read-out: Cmpd. B IC50): 1710 nM | IC50 (COLO205; read-out: Cmpd. B IC50): 34.4 nM | IC50 (DLD-1; read-out: Cmpd. B IC50): > 2700 nM | IC50 (GP2d; read-out: Cmpd. B IC50): 756 nM | IC50 (HCT 116; HCT 116*, repeat experiment performed at end of study, single agent, read-out: Cmpd. B IC50): 735 nM | IC50 (HCT 116; HCT 116, single agent, read-out: Cmpd. B IC50): 881 nM | IC50 (HT-29; HT-29*, repeat experiment performed at end of study, single agent, read-out: Cmpd. B IC50): 66.5 nM | IC50 (HT-29; HT-29, single agent, read-out: Cmpd. B IC50): 84 nM | IC50 (HuTu 80; read-out: Cmpd. B IC50): > 2700 nM | IC50 (KM12; read-out: Cmpd. B IC50): 339 nM | IC50 (LS 180; read-out: Cmpd. B IC50): 143 nM | IC50 (LS123; read-out: Cmpd. B IC50): 2280 nM | IC50 (LS411N; read-out: Cmpd. B IC50): 54.7 nM | IC50 (LoVo; read-out: Cmpd. B IC50): 148 nM | IC50 (NCI-H716; read-out: Cmpd. B IC50): > 2700 nM | IC50 (NCI-H747; read-out: Cmpd. B IC50): 153 nM | IC50 (OUMS-23; read-out: Cmpd. B IC50): > 2700 nM | IC50 (RKO; read-out: Cmpd. B IC50): > 2700 nM | IC50 (SNU-C1; read-out: Cmpd. B IC50): 15.1 nM | IC50 (SW1417; read-out: Cmpd. B IC50): 53.9 nM | IC50 (SW48; read-out: Cmpd. B IC50): 78.4 nM | IC50 (SW620; read-out: Cmpd. B IC50): 26.9 nM | IC50 (SW837; read-out: Cmpd. B IC50): 557 nM | IC50 (SW948; read-out: Cmpd. B IC50): 89.8 nM | IC50 (T84; read-out: Cmpd. B IC50): 12800 nM | IC50 ([1]; Mean over colorectal cell lines, read-out: Mean Cmpd. B IC50): 1160 nM | IC50 ([1]; Median over colorectal cell lines, read-out: Median Cmpd. B IC50): 76 nM
